pIC50: −log10 of the molar value.
Legend:
[1] = system: bovine serum albumin (BSA)
[2] = system: bovine serum albumin (BSA); assay: Fluorescamine assay of free primary amino groups of BSA incubated with D-ribose; format: biochemical; settings: free primary amino group on BSA after 5 days at 37° C.; agent at 16.8 times IC50; 64% without agent
Method: Fluorescamine assay (Yeboah F. et al., J. Agric. Food Chem. 48, 2766-2774 (2000)) was performed on incubated mixtures of BSA and D-ribose, with or without the identified anti-glycation agents. The mixtures contained BSA (0.075 mM protein concentration or 4.53 mM of Lys residue concentration) and D-ribose (50 mM). […] The fluorescamine assay determines the number of free lysine residues of BSA. In this experiment, the final volume of the incubation mixtures was 10 mL and the incubation time was 5 days at 37° C. Prior to the fluorescamine assay, the proteins were isolated by reverse phase HPLC. The protein content was determined using the Bio-Rad protein determination reagent (Bradford method). The fluorescamine assay was done in triplicate.

lysozyme = assay: ESI-MS of lysozyme glycoforms after incubation with D-ribose; settings: 37° C., 5 days; for Peak area as % of total area of all glycoforms, 14,569: lysozyme + 2D-ribose − 2H2O (14,569 Da); for Peak area as % of total area of all glycoforms, 14,551: lysozyme + 2D-ribose − 3H2O (14,551 Da); for Peak area as % of total area of all glycoforms, 14,533: lysozyme + 2D-ribose − 5H2O (14,533 Da); for Peak area as % of total area of all glycoforms, 14,515: lysozyme + 2D-ribose − 6H2O (14,515 Da); for Peak area as % of total area of all glycoforms, 14,419: lysozyme + D-ribose − 2H2O (14,419 Da); for Peak area as % of total area of all glycoforms, 14,401: lysozyme + D-ribose − 3H2O (14,401 Da); for Peak area as % of total area of all glycoforms, 14,437: lysozyme + D-ribose − H2O (14,437 Da); for Peak area as % of total area of all glycoforms, 14,496: lysozyme + D-ribose − H2O with one carboxymethylated Lys residue (14,496 Da); for Peak area as % of total area of all glycoforms, 14,364: lysozyme with one carboxymethylated Lys residue (14,364 Da); for Peak area as % of total area of all glycoforms, 14,305: unmodified lysozyme (14,305 Da);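 for all read-outs here: lysozyme incubated with D-ribose, with or without anti-glycation agents, then separated by reversed-phase HPLC and analysed by electrospray mass spectrometry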

| pIC50 [1] | Compound | Unreacted amino group [2] [%] | Peak area as % of total area of all glycoforms, 14,569 (lysozyme) [%] | Peak area as % of total area of all glycoforms, 14,551 (lysozyme) [%] | Peak area as % of total area of all glycoforms, 14,533 (lysozyme) [%] | Peak area as % of total area of all glycoforms, 14,515 (lysozyme) [%] | Peak area as % of total area of all glycoforms, 14,419 (lysozyme) [%] | Peak area as % of total area of all glycoforms, 14,401 (lysozyme) [%] | Peak area as % of total area of all glycoforms, 14,437 (lysozyme) [%] | Peak area as % of total area of all glycoforms, 14,496 (lysozyme) [%] | Peak area as % of total area of all glycoforms, 14,364 (lysozyme) [%] | Peak area as % of total area of all glycoforms, 14,305 (lysozyme) [%] |
| --- | --- | --- | --- | --- | --- | --- | --- | --- | --- | --- | --- | --- |
| 4.40 | O=c1oc2c(O)c(O)cc3c(=O)oc4c(O)c(O)cc1c4c23 [Ellagic acid] | 52 | 0.0 | 0.0 | 0.0 | 0.0 | 1.2 | 0.0 | 14.6 | 0.0 | 1.1 | 83.1 |
| 3.85 | C[C@@](Cc1ccc(O)c(O)c1)(NN)C(=O)O [S(−)-Carbidopa] | 89 | 0.0 | 2.4 | 0.8 | 0.6 | 3.2 | 2.0 | 18.4 | 0.9 | 3.7 | 67.9 |
| 3.72 | O=C1C=C(O)C(=O)c2ccccc21 [Lawsone] | 44 | 0.0 | 0.0 | 0.9 | 0.8 | 4.9 | 0.0 | 9.5 | 0.0 | 7.5 | 74.3 |
| 4.12 | N[C@@H](Cc1ccc(O)c(O)c1)C(=O)O [L-DOPA] | 60 | 3.0 | 0.7 | 0.8 | 0.7 | 2.1 | 1.8 | 21.1 | 1.2 | 3.9 | 64.7 |
| 4.21 | NCCc1ccc(O)c(O)c1 [Dopamine] | 60 | 1.2 | 0.0 | 0.0 | 0.0 | 1.6 | 1.3 | 13.4 | 0.0 | 3.3 | 79.2 |
| 3.48 | CCCOC(=O)c1cc(O)c(O)c(O)c1 [Propyl gallate] | 28 | 0.0 | 0.0 | 0.0 | 0.0 | 1.3 | 0.0 | 7.7 | 0.0 | 4.4 | 86.6 |
